Laboratory results reported in patent US9670209B2 (ACADIA Pharmaceuticals Inc., priority 2013, dated 2017).
Marks after values point to notes of the source that are not given here.

Columns and labels:
[1] = biological target: human M1 muscarinic acetylcholine receptor (Homo sapiens (Human), UniProt P11229); assay: R-SAT (Receptor Selection and Amplification) assay, M1; type: cell-based; details: for Emax: percent efficacy vs carbachol = 100 percent, read-out: M1 EFF % AVG
Procedure: (§1) Briefly, NIH-3T3 cells were grown in 96-well tissue culture plates to 70% to 80% confluence. Cells were transfected with plasmid DNAs using Superfect Reagent (QIAGEN, Valencia, Calif.) as per the manufacturer's protocols. […] Cells were then grown in a humidified atmosphere with 5% ambient CO2 for 4 to 6 days. Media were then removed from the plates, and beta-galactosidase activity was measured by the addition of o-nitrophenyl-D-galactopyranoside (in phosphate-buffered saline with 5% NP-40 detergent). […] All data represent the mean of three wells and were analyzed using the computer program Excel Fit, and EC50 determinations were made using least-squares fit analysis with GraphPad Software Inc. (San Diego, Calif.) software.

[2] = biological target: human M2 muscarinic acetylcholine receptor (Homo sapiens (Human), UniProt P08172); assay: R-SAT (Receptor Selection and Amplification) assay, M2; type: cell-based; details: for M2 PEC50 AVG: R-SAT, NIH-3T3 cells; for Emax: read-out: M2 EFF % AVG
human M2 muscarinic acetylcholine receptor, sequence (P08172 whole entry): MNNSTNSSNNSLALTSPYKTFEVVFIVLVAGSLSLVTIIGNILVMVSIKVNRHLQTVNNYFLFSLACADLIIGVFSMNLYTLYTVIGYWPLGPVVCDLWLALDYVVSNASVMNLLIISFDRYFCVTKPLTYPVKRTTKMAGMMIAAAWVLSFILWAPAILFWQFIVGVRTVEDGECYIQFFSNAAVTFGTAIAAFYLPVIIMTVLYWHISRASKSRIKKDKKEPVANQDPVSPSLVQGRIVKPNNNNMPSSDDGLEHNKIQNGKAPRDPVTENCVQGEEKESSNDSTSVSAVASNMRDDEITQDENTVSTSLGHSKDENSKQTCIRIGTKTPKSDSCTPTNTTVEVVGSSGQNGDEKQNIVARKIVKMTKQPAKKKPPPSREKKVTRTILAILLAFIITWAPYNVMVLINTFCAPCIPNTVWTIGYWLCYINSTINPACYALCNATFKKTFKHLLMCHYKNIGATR
Procedure: as §1

[3] = biological target: human M3 muscarinic acetylcholine receptor (Homo sapiens (Human), UniProt P20309); assay: R-SAT (Receptor Selection and Amplification) assay, M3; type: cell-based; details: for Emax: read-out: M3 EFF % AVG; for M3 PEC50 AVG: R-SAT, NIH-3T3 cells
human M3 muscarinic acetylcholine receptor, sequence (P20309 whole entry): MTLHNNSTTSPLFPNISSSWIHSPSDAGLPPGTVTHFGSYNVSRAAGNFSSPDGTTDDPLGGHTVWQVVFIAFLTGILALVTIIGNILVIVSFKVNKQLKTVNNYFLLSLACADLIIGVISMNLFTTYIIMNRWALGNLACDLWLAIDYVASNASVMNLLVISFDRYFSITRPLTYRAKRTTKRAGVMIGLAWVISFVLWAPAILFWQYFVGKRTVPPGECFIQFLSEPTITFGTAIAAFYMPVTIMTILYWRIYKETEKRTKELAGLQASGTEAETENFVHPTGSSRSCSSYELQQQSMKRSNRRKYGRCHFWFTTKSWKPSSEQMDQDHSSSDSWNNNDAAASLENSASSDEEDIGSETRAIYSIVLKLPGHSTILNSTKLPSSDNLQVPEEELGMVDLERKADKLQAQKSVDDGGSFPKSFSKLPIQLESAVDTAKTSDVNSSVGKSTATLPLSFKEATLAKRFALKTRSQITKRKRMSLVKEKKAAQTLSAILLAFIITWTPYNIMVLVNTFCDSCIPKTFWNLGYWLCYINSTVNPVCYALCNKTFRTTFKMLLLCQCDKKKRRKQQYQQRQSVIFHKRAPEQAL
Procedure: as §1

[4] = biological target: M1 muscarinic receptor (Homo sapiens (Human), UniProt P11229); assay: M1 GTPγS binding assay; type: biochemical; details: for Emax: read-out: M1 GTPγS EFF % AVG; for M1 GTPγS PEC50 AVG: GTPγS binding;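 for Emax: efficacy relative to carbachol as 100%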
M1 muscarinic receptor, sequence (P11229 whole entry): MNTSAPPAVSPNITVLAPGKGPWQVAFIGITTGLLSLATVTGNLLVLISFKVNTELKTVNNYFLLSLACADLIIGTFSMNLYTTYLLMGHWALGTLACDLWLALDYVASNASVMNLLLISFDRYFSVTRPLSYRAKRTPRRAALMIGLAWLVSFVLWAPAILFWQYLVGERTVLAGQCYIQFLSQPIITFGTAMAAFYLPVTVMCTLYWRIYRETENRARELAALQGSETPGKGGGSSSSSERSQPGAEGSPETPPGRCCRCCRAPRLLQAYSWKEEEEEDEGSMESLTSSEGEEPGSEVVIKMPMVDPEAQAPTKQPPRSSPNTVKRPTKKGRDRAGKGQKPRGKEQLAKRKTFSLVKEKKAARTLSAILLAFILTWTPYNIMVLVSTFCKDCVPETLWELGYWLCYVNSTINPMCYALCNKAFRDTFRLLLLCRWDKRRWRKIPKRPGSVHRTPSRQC

[5] = tested on: tear secretion; assay: Tear secretion (phenol red thread) in mice; type: in vivo, balb/c mice; details: for Tear secretion: third study (pilocarpine 24-hour study), 0.1% 5 μl drop, Pilocarpine 0.2% 20 μl drop
Procedure: The tear distance, in mm, is recorded. The mice were not anesthetized or otherwise sedated. […] Data are analyzed by repeated measures ANOVA with post-hoc Bonferroni comparisons to vehicle. […] Further details can be seen in FIG. 2.

human M1 muscarinic acetylcholine receptor, sequence (P11229 whole entry): as above

| Compound | M1 PEC50 AVG ([1]; NIH-3T3 cells) | Emax [1] [%] | M2 PEC50 AVG [2] | Emax [2] [%] | Emax [3] [%] | EC50 [4] [nM] | Emax [4] [%] | M3 PEC50 AVG [3] | M1 GTPγS PEC50 AVG [4] | EC50 ([1]; NIH-3T3 cells, read-out: M1 PEC50 AVG (converted)) [nM] | Tear secretion compared to vehicle ([5]; pilocarpine 24-hour study, 3 and 6 hours post-dosing) | Tear secretion ([5]; 3 hr post-dosing) [% *] | Tear secretion ([5]; 6 hr post-dosing) [% *] | Tear secretion ([5]; 24 hr post-dosing) [%] |
| --- | --- | --- | --- | --- | --- | --- | --- | --- | --- | --- | --- | --- | --- | --- |
| Cc1cccc2cnn(C[C@H](C)CN3[C@@H]4CC[C@H]3C[C@@H](OCC3CC3)C4)c12 [Compound 317, 1-((R)-3-(3-(cyclopropylmethoxy)-8-aza-bicyclo[3.2.1]octan-8-yl)-2-methylpropyl)-7-methyl-1H-indazole] | 7.6 | 81 | 6.9 | 46 | 2 | 100 | 85 |  |  |  |  |  |  |  |
| C#CCO[C@H]1C[C@H]2CC[C@@H](C1)N2C[C@@H](C)Cn1ncc2ccc(OC)cc21 [Compound 322s, 1-((R)-3-((1R,3R,5S)-3-(prop-2-ynyloxy)-8-azabicyclo[3.2.1]octan-8-yl)-2-methylpropyl)-6-methoxy-1H-indazole] | 8.0 | 86 | 7.1 | 44 | 5 | 79.4 | 42 |  |  |  |  |  |  |  |
| COC/C=C1\C[C@H]2CC[C@@H](C1)N2C[C@@H](C)Cn1ncc2ccccc21 [Compound 320s, 1-((R)-3-((1R,3R,58)-3-(2-methoxyethylidene)-8-azabicyclo[3.2.1]octan-8-yl)-2-methylpropyl)-1H-indazole] | 8.2 | 109 | 7.2 | 90 | 8 | 158 | 60 |  |  |  |  |  |  |  |
| Cc1ccc2cnn(C[C@H](C)CN3[C@@H]4CC[C@H]3C[C@@H](OCC3CC3)C4)c2c1 [Compound 304, 1-((R)-3-(3-(Cyclopropylmethoxy)-8-aza-bicyclo[3.2.1]octan-8-yl)-2-methylpropyl)-6-methyl-1H-indazole] | 8.9 | 110 | 7.6 | 108 | 9 |  | 67 | 7.4 | 8.3 |  |  |  |  |  |
| COCC[C@H]1C[C@H]2CC[C@@H](C1)N2C[C@@H](C)Cn1ncc2ccc(F)cc21 [Compound 309, 1-((R)-3-(3-(2-Methoxyethyl)-8-aza-bicyclo[3.2.1]octan-8-yl)-2-methylpropyl)-6-fluoro-1H-indazole] | 9.4 | 123 | 7.5 | 176 | 18 |  | 53 | 6.9 | 7.3 |  |  |  |  |  |
| C[C@H](CN1[C@@H]2CC[C@H]1C[C@@H](OC1CCCC1)C2)Cn1ncc2ccccc21 [Compound 314s, 1-((R)-3-((1R,3R,58)-3-(cyclopentyloxy)-8-azabicyclo[3.2.1]octan-8-yl)-2-methylpropyl)-1H-indazole] | 8.4 | 104 | 7.3 | 74 | 8 | 25.1 | 48 |  |  |  |  |  |  |  |
| C[C@H](CN1[C@@H]2CC[C@H]1C[C@@H](OCC1CC1)C2)Cn1ncc2ccc(CO)cc21 [Compound 310s] |  | 96 |  | 27 | 6 | 631 | 62 |  |  | 31.6 |  |  |  |  |
| CCOCC[C@H]1C[C@H]2CC[C@@H](C1)N2C[C@@H](C)Cn1ncc2ccc(C)cc21 [Compound 324, 1-((R)-3-((1R,3R,5S)-3-(2-ethoxyethyl)-8-azabicyclo[3.2.1]octan-8-yl)-2-methylpropyl)-6-methyl-1H-indazole] | 9.1 | 82 | 7.9 | 45 | 17 | 6.31 | 31 |  |  |  |  |  |  |  |
| Cc1ccc2c(cnn2C[C@H](C)CN2[C@@H]3CC[C@H]2C[C@@H](OCC2CC2)C3)c1 [Compound 321, 1-((R)-3-(3-(cyclopropylmethoxy)-8-aza-bicyclo[3.2.1]octan-8-yl)-2-methylpropyl)-5-methyl-1H-indazole] | 7.9 | 75 | 8.1 | 19 | 3 | 63.1 | 56 |  |  |  |  |  |  |  |
| CC[C@@H]1C(=O)OC[C@@H]1Cc1cncn1C [Pilocarpine, reference compound] |  |  |  |  |  |  |  |  |  |  | statistically significant improved tear secretion | 142 | 136 | 113 |
| C=CCO[C@H]1C[C@H]2CC[C@@H](C1)N2C[C@@H](C)Cn1ncc2ccc(F)cc21 [Compound 308, 1-((R)-3-(3-(Allyloxy)-8-aza-bicyclo[3.2.1]octan-8-yl)-2-methylpropyl)-6-fluoro-1H-indazole] | 8.9 | 131 | 7.4 | 152 | 18 |  | 66 | 6.3 | 7.1 |  |  |  |  |  |
| COc1ccc2cnn(C[C@H](C)CN3[C@@H]4CC[C@H]3C[C@@H](OCC3CC3)C4)c2c1 [Compound 311] |  | 120 |  | 65 | 2 | 50.1 | 55 |  |  |  |  |  |  |  |
| CCCO[C@H]1C[C@H]2CC[C@@H](C1)N2C[C@@H](C)Cn1ncc2ccccc21 [Compound 319s, 1-((R)-3-(3-(propoxy)-8-aza-bicyclo[3.2.1]octan-8-yl)-2-methylpropyl)-1H-indazole] | 8.1 | 111 | 7.5 | 102 | 3 | 200 | 63 |  |  |  |  |  |  |  |
| CCOCC[C@H]1C[C@H]2CC[C@@H](C1)N2C[C@@H](C)Cn1ncc2ccccc21 [Compound 323, 1-((R)-3-((1R,3R,5S)-3-(2-ethoxyethyl)-8-azabicyclo[3.2.1]octan-8-yl)-2-methylpropyl)-1H-indazole] | 9.1 | 66 | 7.8 | 34 | -2 | 20 | 32 |  |  |  |  |  |  |  |
| C[C@H](CN1[C@@H]2CC[C@H]1C[C@@H](OCC1CC1)C2)Cn1ncc2ccc(F)cc21 [Compound 307, 1-((R)-3-(3-(Cyclopropylmethoxy)-8-aza-bicyclo[3.2.1]octan-8-yl)-2-methylpropyl)-6-fluoro-1H-indazole] | 9.5 | 156 | 7.7 | 198 | 19 |  | 63 | 7.3 | 8.0 |  |  |  |  |  |
| C[C@H](CN1[C@@H]2CC[C@H]1C[C@@H](OCC1CCC1)C2)Cn1ncc2ccccc21 [Compound 315, 1-((R)-3-(3-(cyclobutylmethoxy)-8-aza-bicyclo[3.2.1]octan-8-yl)-2-methylpropyl)-1H-indazole] | 8.1 | 100 | 7.3 | 47 | 5 | 50.1 | 36 |  |  |  |  |  |  |  |
| COCC[C@H]1C[C@H]2CC[C@@H](C1)N2C[C@@H](C)Cn1ncc2ccc(OC)cc21 [Compound 313, 1-((R)-3-((1R,3R,58)-3-(2-methoxyethyl)-8-azabicyclo[3.2.1]octan-8-yl)-2-methylpropyl)-6-methoxy-1H-indazole] | 8.2 | 116 | 7.3 | 111 | 7 | 39.8 | 49 |  |  |  |  |  |  |  |
| C#CCO[C@H]1C[C@H]2CC[C@@H](C1)N2C[C@@H](C)Cn1ncc2ccccc21 [Compound 318s, 1-((R)-3-((1R,3R,5S)-3-(prop-2-ynyloxy)-8-azabicyclo[3.2.1]octan-8-yl)-2-methylpropyl)-1H-indazole] | 8.0 | 122 | 7.2 | 92 | 8 | 79.4 | 66 |  |  |  |  |  |  |  |
| Cc1nn(C[C@H](C)CN2[C@@H]3CC[C@H]2C[C@@H](OCC2CC2)C3)c2ccccc12 [Compound 316, 1-((R)-3-(3-(cyclopropylmethoxy)-8-aza-bicyclo[3.2.1]octan-8-yl)-2-methylpropyl)-3-methyl-1H-indazole] | 7.9 | 78 | 6.6 | 81 | 5 | 31.6 | 88 |  |  |  |  |  |  |  |
